Laboratory results reported in ChEMBL document CHEMBL1152187, “Synthesis of C4-fluorinated solamins and their growth inhibitory activity against human cancer cell lines” (2008).

How the values were obtained:
Format in all cases: functional
NCI-H226 = experiment: Growth inhibition of human NCI-H226 cells by sulforhodamine B assay
NCI-H460 = experiment: Growth inhibition of human NCI-H460 cells by sulforhodamine B assay
[1] = Growth inhibition of human HBC5 cells by sulforhodamine B assay
[2] = Growth inhibition of human MKN1 cells by sulforhodamine B assay; conditions: MKN-1
MKN-28 = experiment: Growth inhibition of human MKN28 cells by sulforhodamine B assay
OVCAR-8 = experiment: Growth inhibition of human OVCAR8 cells by sulforhodamine B assay
OVCAR-5 = experiment: Growth inhibition of human OVCAR5 cells by sulforhodamine B assay
MKN-74 = experiment: Growth inhibition of human MKN74 cells by sulforhodamine B assay
HT-29 = experiment: Growth inhibition of human HT-29 cells by sulforhodamine B assay
DMS-273 = experiment: Growth inhibition of human DMS273 cells by sulforhodamine B assay
SNB-78 = experiment: Growth inhibition of human SNB-78 cells by sulforhodamine B assay
MKN-7 = experiment: Growth inhibition of human MKN7 cells by sulforhodamine B assay
[3] = Growth inhibition of human HBC4 cells by sulforhodamine B assay
HCC 2998 = experiment: Growth inhibition of human HCC2998 cells by sulforhodamine B assay
SF-295 = experiment: Growth inhibition of human SF295 cells by sulforhodamine B assay
SK-OV-3 = experiment: Growth inhibition of human SKOV3 cells by sulforhodamine B assay
[4] = Growth inhibition of human BSY1 cells by sulforhodamine B assay; conditions: BSY-1
MKN-45 = experiment: Growth inhibition of human MKN45 cells by sulforhodamine B assay
OVCAR-4 = experiment: Growth inhibition of human OVCAR4 cells by sulforhodamine B assay
SNB-75 = experiment: Growth inhibition of human SNB75 cells by sulforhodamine B assay
[5] = Growth inhibition of human RXF631L cells by sulforhodamine B assay; conditions: RXF 631
U-251 = experiment: Growth inhibition of human U251 cells by sulforhodamine B assay
DMS-114 = experiment: Growth inhibition of human DMS114 cells by sulforhodamine B assay
LOX IMVI = experiment: Growth inhibition of human LOXIMVI cells by sulforhodamine B assay
PC-3 = experiment: Growth inhibition of human PC3 cells by sulforhodamine B assay
ACHN = experiment: Growth inhibition of human ACHN cells by sulforhodamine B assay
MDA-MB-231 = experiment: Growth inhibition of human MDA-MB-231 cells by sulforhodamine B assay
SF-539 = experiment: Growth inhibition of human SF539 cells by sulforhodamine B assay
NCI-H522 = experiment: Growth inhibition of human NCI-H522 cells by sulforhodamine B assay
SF-268 = experiment: Growth inhibition of human SF268 cells by sulforhodamine B assay
A549 = experiment: Growth inhibition of human A549 cells by sulforhodamine B assay
HCT-116 = experiment: Growth inhibition of human HCT116 cells by sulforhodamine B assay
St-4 = experiment: Growth inhibition of human St-4 cells by sulforhodamine B assay
HCT-15 = experiment: Growth inhibition of human HCT15 cells by sulforhodamine B assay
NCI-H23 = experiment: Growth inhibition of human NCI-H23 cells by sulforhodamine B assay
KM12 = experiment: Growth inhibition of human KM12 cells by sulforhodamine B assay
OVCAR-3 = experiment: Growth inhibition of human OVCAR-3 cells by sulforhodamine B assay
DU-145 = experiment: Growth inhibition of human DU145 cells by sulforhodamine B assay
MCF7 = experiment: Growth inhibition of human MCF7 cells by sulforhodamine B assay

| SMILES | GI50 (NCI-H226) | GI50 (NCI-H460) | GI50 [1] | GI50 [2] | GI50 (MKN-28) | GI50 (OVCAR-8) | GI50 (OVCAR-5) | GI50 (MKN-74) | GI50 (HT-29) | GI50 (DMS-273) | GI50 (SNB-78) | GI50 (MKN-7) | GI50 [3] | GI50 (HCC 2998) | GI50 (SF-295) | GI50 (SK-OV-3) | GI50 [4] | GI50 (MKN-45) | GI50 (OVCAR-4) | GI50 (SNB-75) | also measured |
| --- | --- | --- | --- | --- | --- | --- | --- | --- | --- | --- | --- | --- | --- | --- | --- | --- | --- | --- | --- | --- | --- |
| CCCCCCCCCCCC[C@@H](O)[C@H]1CC[C@H]([C@H](O)CCCCCCCCCC[C@H](F)CC2=C[C@H](C)OC2=O)O1 | 40 µM | > 100 µM | > 100 µM | > 100 µM | > 100 µM | > 100 µM | > 100 µM | > 100 µM | 92 µM | > 100 µM | > 100 µM | 19 µM | > 100 µM | > 100 µM | 31 µM | > 100 µM | 69 µM | 43 µM | > 100 µM | 58 µM | GI50 [5]: > 100 µM; GI50 (U-251): > 100 µM; GI50 (DMS-114): 0.46 µM; GI50 (LOX IMVI): 97 µM; GI50 (PC-3): 84 µM; GI50 (ACHN): > 100 µM; GI50 (MDA-MB-231): > 100 µM; GI50 (SF-539): > 100 µM; GI50 (NCI-H522): 16 µM; GI50 (SF-268): > 100 µM; GI50 (A549): > 100 µM; GI50 (HCT-116): 27 µM; GI50 (St-4): > 100 µM; GI50 (HCT-15): > 100 µM; GI50 (NCI-H23): 5.1 µM; GI50 (KM12): > 100 µM; GI50 (OVCAR-3): > 100 µM; GI50 (DU-145): > 100 µM; GI50 (MCF7): 37 µM |
| CCCCCCCCCCCC[C@@H](O)[C@H]1CC[C@H]([C@H](O)CCCCCCCCCC[C@@H](F)CC2=C[C@H](C)OC2=O)O1 | 58 µM | > 100 µM | > 100 µM | > 100 µM | 41 µM | 62 µM | > 100 µM | > 100 µM | > 100 µM | > 100 µM | > 100 µM | 0.96 µM | > 100 µM | > 100 µM | 37 µM | > 100 µM | > 100 µM | > 100 µM | > 100 µM | 84 µM | GI50 [5]: > 100 µM; GI50 (U-251): > 100 µM; GI50 (DMS-114): 0.26 µM; GI50 (LOX IMVI): 6.5 µM; GI50 (PC-3): > 100 µM; GI50 (ACHN): > 100 µM; GI50 (MDA-MB-231): > 100 µM; GI50 (SF-539): > 100 µM; GI50 (NCI-H522): 25 µM; GI50 (SF-268): > 100 µM; GI50 (A549): > 100 µM; GI50 (HCT-116): 2 µM; GI50 (St-4): 74 µM; GI50 (HCT-15): > 100 µM; GI50 (NCI-H23): 23 µM; GI50 (KM12): > 100 µM; GI50 (OVCAR-3): > 100 µM; GI50 (DU-145): > 100 µM; GI50 (MCF7): 56 µM |
